In publication PMC6321509, “Search of Allosteric Inhibitors and Associated Proteins of an AKT-like Kinase from Trypanosoma cruzi” (International Journal of Molecular Sciences, 2018):
Like-named read-outs stand apart in the source and are kept apart here.

Tests used:
Assay type in all cases: cell-based
[1] = in vitro; conditions: MTT, read-out: LC50 lethal concentration on human monocyte-derived macrophages (hMDMD)
Method: The cytotoxicity of the compounds was evaluated according to the ability to kill macrophages derived from human monocytes (hMDM) by the […] method, following the procedures performed by Pastrana Restrepo et al.. The hMDM were obtained from 50 mL of desfribrinated whole blood from healthy donors. These samples were mixed in a 1:1 ratio with Dulbecco PBS free of calcium and magnesium (DPBS). The mixture was centrifuged in a Ficoll Hypaque 1077 density gradient in a 1:3 ratio (blood–Ficoll) for separation of mononuclear cells, centrifuging at 2000 rpm for 20 min at 37 °C. The mononuclear cell layer was separated and these cells were washed twice with a solution of DPBS centrifuged at 13000 rpm for 10 min. After the last wash, the cells were resuspended in an RPMI medium with 10% autologous serum at a concentration of 0.3 × 10^6 cells/mL. Then, 1 mL of cells was placed in each well of 24-well culture dishes and incubated at 37 °C, 5% CO2 for 72 h to allow the differentiation of monocytes to macrophages. For the MTT test, the hMDM were adjusted to a concentration of 0.5 × 10^6 cells/mL in the RPMI medium supplemented with 10% FBS, and the concentration of the compound in the culture was adjusted (four serial dilutions starting at 200 μM). Amphotericin B and Doxorubicin were used as controls for the determination of cytotoxicity. Each experiment was performed in triplicate.
In this case, the in vitro cytotoxicity was defined by the decrease in the cell viability and growth, obtained from the OD for each experimental condition, using the following formula: (%) viability inhibition = […], where the OD of untreated cells corresponds to 100% of the viability. Growth inhibition percentage data obtained for each experimental condition were used to calculate the half lethal concentration (LC50) by the Probit analysis.
The cytotoxicity of each compound was rated according to its LC50. […]

[2] = test system: Leishmania braziliensis; experiment: In vitro experiments on Leishmania braziliensis; conditions: mean ± SD
[3] = test system: T. cruzi amastigote; experiment: In vitro antitrypanosomal activity, amastigotes in U937 macrophages (β-galactosidase Tulahuen strain); conditions: Trypanosoma cruzi, U-937; infected U937 macrophages, 72 h; mean ± SD; read-out: IC50 inhibitory concentration of T. cruzi amastigote
Method: A human promonocitic U937 line was cultivated in RPMI-1640 medium with 10% fetal bovine serum (FBS) at a concentration of 0.25 × 10^6 cells/mL; the cells were transformed into macrophages by being incubated with phorbol 12-myristate 13-acetate (PMA) at 0.1 µg/mL. To adhere the cells, 0.1 mL of cells was added in 96-well dishes. Adherence was carried out for 72 h, and then epimastigote were added in the stationary phase of the Tulahuen strain producing β-galactosidase, at 5 parasite/cellU937 concentrations for 24 h at 37 °C with 5% CO2. To calculate the IC50 (Table 2), different concentrations of the compounds to evaluate and Benznidazole were added at an initial concentration of 20 µg/mL and 6 serial dilutions were made as a control of the effectiveness of the experiment, in addition to the control of the viability of the parasites (cells without drug treatment), from the blank of the culture medium (medium without cells), in duplicate. The cells were incubated for 72 h at 37 °C with 5% of CO2. […] The colorimetric reaction was read at 570 nm and optical densities (OD) for each experimental condition were registered. […] The half inhibitory concentration (IC50) was calculated by the Probit method using the % of inhibition for each concentration. […]

| Structure (SMILES) | CC50 ([1]; mean ± SD) [µM] | IC50 [2] [µM] | CC50 [1] [µg/mL] | IC50 [3] [µM] |
| --- | --- | --- | --- | --- |
| C[C@@H]1[C@H](O)[C@@H](C)/C=C/C=C/C=C/C=C/C=C/C=C/C=C/[C@H](O[C@@H]2O[C@H](C)[C@@H](O)[C@H](N)[C@@H]2O)C[C@@H]2O[C@](O)(C[C@@H](O)C[C@@H](O)[C@H](O)CC[C@@H](O)C[C@@H](O)CC(=O)O[C@H]1C)C[C@H](O)[C@H]2C(=O)O [Amphotericin B] | 49.8 ± 6.82 | 0.3 ± 0.07 | – | – |
| O=C(Cn1ccnc1[N+](=O)[O-])NCc1ccccc1 [Benznidazole] | – | – | > 200 | 16.6 ± 4 |
| COc1cccc2c1C(=O)c1c(O)c3c(c(O)c1C2=O)C[C@@](O)(C(=O)CO)C[C@@H]3O[C@H]1C[C@H](N)[C@H](O)[C@H](C)O1 [Doxorrubicin, Doxorubicin] | 3.91 ± 0.4 | – | – | – |
